Assay results taken from patent US11827616B2, “Heterocyclic compounds as pesticides” (Discovery Purchaser Corporation, priority 2018, dated 2023).
Where two headings read alike, the source gives them in different places.

Assays:
Format in all cases: in vivo
Tetranychus urticae = Tetranychus urticae spray test, OP-resistant; details: application rate 500 g/ha; after 6 days
Procedure: Tetranychus urticae—Spray Test, OP-Resistant
Solvent: 78.0 Parts by Weight of Acetone • • 1.5 parts by weight of dimethylformamide
(§1) Emulsifier: alkylaryl polyglycol ether
(§2) To produce a suitable active compound formulation, 1 part by weight of active compound is dissolved with the specified parts by weight of solvent and made up to the desired concentration with water containing an emulsifier concentration of 1000 ppm. To produce further test concentrations, the formulation is diluted with emulsifier-containing water.
Discs of bean leaves (Phaseolus vulgaris) infested with all stages of the greenhouse red spider mite (Tetranychus urticae) are sprayed with an active compound formulation of the desired concentration.
After 6 days, the efficacy in % is determined. 100% means that all the spider mites have been killed; 0% means that no spider mites have been killed.

Phaedon cochleariae = Phaedon cochleariae spray test; details: for pest or weed control at 500 g/ha: Phaedon cochleariae, 168 h, read-out: efficacy
Procedure: Phaedon cochleariae—Spray Test
(§3) Solvent: 78.0 parts by weight of acetone • • 1.5 parts by weight of dimethylformamide
as §1, §2
Discs of Chinese cabbage leaves (Brassica pekinensis) are sprayed with an active compound formulation of the desired concentration and, after drying, populated with larvae of the mustard beetle (Phaedon cochleariae).
After 7 days, the efficacy in % is determined. 100% means that all the beetle larvae have been killed; 0% means that no beetle larvae have been killed.

Spodoptera frugiperda = Spodoptera frugiperda spray test; details: for pest or weed control at 500 g/ha: Spodoptera frugiperda, 168 h, read-out: efficacy
Procedure: Spodoptera frugiperda—Spray Test
as §3, §1, §2
Leaf discs of maize (Zea mays) are sprayed with an active compound formulation of the desired concentration and, after drying, populated with caterpillars of the fall armyworm (Spodoptera frugiperda).
After 7 days, the efficacy in % is determined. 100% means that all the caterpillars have been killed; 0% means that no caterpillar has been killed.

Ctenocephalides felis = Ctenocephalides felis in vitro contact test with adult cat fleas; details: application rate 5 μg/cm^2 (=500 g/ha); after 48 h
Procedure: Ctenocephalides felis—In Vitro Contact Tests with Adult Cat Fleas
(§4) For the coating of the test tubes, 9 mg of active compound are first dissolved in 1 ml of acetone p.a. and then diluted to the desired concentration with acetone p.a. 250 μl of the solution are distributed homogeneously on the inner walls and the base of a 25 ml glass tube by turning and rocking on an orbital shaker (rocking rotation at 30 rpm for 2 h). With 900 ppm of active compound solution and internal surface area 44.7 cm^2, given homogeneous distribution, an area-based dose of 5 μg/cm^2 is achieved.
After the solvent has evaporated off, the tubes are populated with 5-10 adult cat fleas (Ctenocephalides felis), sealed with a perforated plastic lid and incubated in a horizontal position at room temperature and ambient humidity. After 48 h, efficacy is determined. To this end, the tubes are stood upright and the fleas are knocked to the base of the tube. Fleas which remain motionless at the base or move in an uncoordinated manner are considered to be dead or moribund.
100% efficacy means that all the fleas were dead or moribund. 0% efficacy means that no fleas were harmed.

Rhipicephalus sanguineus = Rhipicephalus sanguineus in vitro contact test with adult brown dog ticks; details: application rate 5 μg/cm^2 (=500 g/ha); after 48 h
Procedure: Rhipicephalus sanguineus—In Vitro Contact Tests with Adult Brown Dog Ticks
as §4
After the solvent has evaporated off, the tubes are populated with 5-10 adult dog ticks (Rhipicephalus sanguineus), sealed with a perforated plastic lid and incubated in a horizontal position in the dark at room temperature and ambient humidity. After 48 h, efficacy is determined. To this end, the ticks are knocked to the base of the tube and incubated on a hotplate at 45-50° C. for not more than 5 min. Ticks which remain motionless on the base or move in such an uncoordinated manner that they are unable to deliberately avoid the heat by climbing upwards are considered to be dead or moribund.
An efficacy of 100% means that all the ticks were dead or moribund. 0% efficacy means that none of the ticks were harmed.

Boophilus microplus = Boophilus microplus injection test; details: for pest or weed control at 0.02 mg: Rhipicephalus microplus, 168 h
Procedure: Boophilus microplus—Injection Test
(§5) Solvent: dimethyl sulfoxide
To produce a suitable active compound formulation, 10 mg of active compound are mixed with 0.5 ml of solvent and the concentrate is diluted to the desired concentration with solvent.
1 μl of the active compound solution is injected into the abdomen of 5 engorged adult female cattle ticks (Boophilus microplus). The animals are transferred into dishes and kept in a climate-controlled room.
Efficacy is assessed after 7 days by laying of fertile eggs. Eggs which are not visibly fertile are stored in a climate-controlled cabinet until the larvae hatch after about 42 days. An efficacy of 100% means that none of the ticks has laid any fertile eggs; 0% means that all the eggs are fertile.

Lucilia cuprina = Lucilia cuprina test; details: application rate 100 ppm; L1 larvae; after 2 days
Procedure: as §5
To produce a suitable active compound formulation, 10 mg of active compound are mixed with 0.5 ml of dimethyl sulfoxide, and the concentrate is diluted with water to the desired concentration.
About 20 L1 larvae of the Australian sheep blowfly (Lucilia cuprina) are transferred into a test vessel containing minced horsemeat and the active compound formulation of the desired concentration.
After 2 days, the kill in % is determined. 100% means that all the larvae have been killed; 0% means that no larvae have been killed.

[1] = application rate 500 g/ha, after 7 days
[2] = application rate 20 μg/animal, after 7 days

Compound: CON(C)CCOc1ncc(COc2ccc(Cl)c3ccccc23)cc1Cl [Example 7]
- efficacy (Tetranychus urticae): 100%

Compound: CON(C)CCOc1ccc(COc2ccc3oc4ccccc4c3c2)cn1 [Example 8]
- efficacy (Phaedon cochleariae; [1]): 100%
- efficacy (Spodoptera frugiperda; [1]): 100%

Compound: CCN(CC)CCOc1ccc(COc2cccc3c(Cl)c(Cl)ccc23)cn1 [Example 9]
- efficacy (fleas dead or moribund) (Ctenocephalides felis): 100%
- efficacy (ticks dead or moribund) (Rhipicephalus sanguineus): 100%
- efficacy (laying of fertile eggs) (Boophilus microplus; [2]): 90%
- efficacy (Phaedon cochleariae; [1]): 83%
- efficacy (Spodoptera frugiperda; [1]): 100%

Compound: CON(C)CCOc1ccc(COc2cccc3c(Cl)c(Cl)ccc23)nc1Cl [Example 18]
- efficacy (laying of fertile eggs) (Boophilus microplus; [2]): 100%
- efficacy (Spodoptera frugiperda; [1]): 100%

Compound: CON(C)CCOc1cnc(COc2cccc3c(F)cccc23)c(F)c1 [Example 24]
- efficacy (fleas dead or moribund) (Ctenocephalides felis): 100%
- efficacy (ticks dead or moribund) (Rhipicephalus sanguineus): 100%
- efficacy (laying of fertile eggs) (Boophilus microplus; [2]): 100%
- efficacy (Spodoptera frugiperda; [1]): 83%

Compound: CON(C)CCOc1cnc(COc2ccc(Cl)c3ccccc23)c(Cl)c1 [Example 25]
- efficacy (laying of fertile eggs) (Boophilus microplus; [2]): 100%
- efficacy (Spodoptera frugiperda; [1]): 100%

Compound: CN(CC#N)CCOc1cnc(COc2cccc3c(Cl)c(Cl)ccc23)c(F)c1 [Example 28]
- efficacy (ticks dead or moribund) (Rhipicephalus sanguineus): 100%
- efficacy (laying of fertile eggs) (Boophilus microplus; [2]): 100%
- efficacy (kill in %) (Lucilia cuprina): 100%

Compound: CON(C)CCOc1ccc(COc2ccc3oc4ccccc4c3c2)nc1 [Example 31]
- efficacy (ticks dead or moribund) (Rhipicephalus sanguineus): 100%
- efficacy (laying of fertile eggs) (Boophilus microplus; [2]): 100%
- efficacy (kill in %) (Lucilia cuprina): 100%
- efficacy (Phaedon cochleariae; [1]): 100%
- efficacy (Spodoptera frugiperda; [1]): 100%

Compound: CCN(CC)CCOc1cnc(COc2cccc3c(Cl)c(Cl)ccc23)c(F)c1 [Example 32, 2-[(6-{[(5,6-dichloro-1-naphthyl)oxy]methyl}-5-fluoropyridin-3-yl)oxy]-N,N-diethylethanamine]
- efficacy (fleas dead or moribund) (Ctenocephalides felis): 100%
- pest or weed control at 0.02 mg (Boophilus microplus; application rate 20 μg/animal, after 7 days, read-out: efficacy (laying of fertile eggs)): 100%
- pest or weed control at 500 g/ha (Spodoptera frugiperda; [1]): 100%
- efficacy (Tetranychus urticae): 90%

Compound: CCN(CC)CCOc1ccc(COc2cccc3c(Cl)c(Cl)ccc23)nc1 [Example 33]
- efficacy (laying of fertile eggs) (Boophilus microplus; [2]): 80%
- efficacy (Phaedon cochleariae; [1]): 100%
- efficacy (Spodoptera frugiperda; [1]): 100%

Compound: CN(CCOc1cnc(COc2ccc3oc4ccccc4c3c2)c(F)c1)C(C)(C)C [Example 34]
- efficacy (laying of fertile eggs) (Boophilus microplus; [2]): 80%
- efficacy (Phaedon cochleariae; [1]): 100%
- efficacy (Spodoptera frugiperda; [1]): 100%
- efficacy (Tetranychus urticae): 90%

Compound: CN(CCOc1cnc(COc2ccc3oc4ccccc4c3c2)c(F)c1)C(C)(C)C.Cl [Example 35]
- efficacy (Phaedon cochleariae; [1]): 83%

Compound: CN(CCOc1cnc(COc2cccc3c(Cl)c(Cl)ccc23)c(F)c1)C(C)(C)C [Example 36, N-{2-[(6-{[(5,6-dichloro-1-naphthyl)oxy]methyl}-5-fluoropyridin-3-yl)oxy]ethyl}-N,2-dimethylpropan-2-amine]
- pest or weed control at 0.02 mg (Boophilus microplus; read-out: efficacy (laying of fertile eggs), application rate 20 μg/animal, after 7 days): 100%
- pest or weed control at 500 g/ha (Phaedon cochleariae): 100%
- pest or weed control at 500 g/ha (Spodoptera frugiperda): 100%

Compound: CN(CCOc1cnc(COc2cccc3c(Cl)c(Cl)ccc23)c(F)c1)C(C)(C)C [Example 37, N-{2-[(6-{[(5,6-dichloro-1-naphthyl)oxy]methyl}-5-fluoropyridin-3-yl)oxy]ethyl}-N,2-dimethylpropan-2-aminium chloride]
- efficacy (fleas dead or moribund) (Ctenocephalides felis): 100%
- efficacy (laying of fertile eggs) (Boophilus microplus; [2]): 80%
- efficacy (Phaedon cochleariae; [1]): 100%
- efficacy (Spodoptera frugiperda; [1]): 100%

Compound: CC(C)(C)NCCOc1cnc(COc2cccc3c(Cl)c(Cl)ccc23)c(F)c1 [Example 38]
- efficacy (laying of fertile eggs) (Boophilus microplus; [2]): 100%
- efficacy (kill in %) (Lucilia cuprina): 80%
- efficacy (Phaedon cochleariae; [1]): 100%
- efficacy (Spodoptera frugiperda; [1]): 100%

Compound: CC(C)N(CCOc1cnc(COc2ccc3oc4ccccc4c3c2)c(F)c1)C(C)C [Example 40]
- efficacy (Phaedon cochleariae; [1]): 100%

Compound: Fc1cc(OCCN2CCCCC2)cnc1COc1ccc2oc3ccccc3c2c1 [Example 41]
- efficacy (Tetranychus urticae): 90%

Compound: Fc1cc(OCCN2CCCCC2)cnc1COc1cccc2c(Cl)c(Cl)ccc12 [Example 42]
- efficacy (Spodoptera frugiperda; [1]): 100%

Compound: CC(C)N(C)CCOc1cnc(COc2ccc3oc4ccccc4c3c2)c(F)c1 [Example 43]
- efficacy (Phaedon cochleariae; [1]): 100%

Compound: CCN1CCN(c2cnc(COc3cccc4c(Cl)c(Cl)ccc34)c(F)c2)CC1 [Example 45]
- efficacy (Phaedon cochleariae; [1]): 100%
- efficacy (Spodoptera frugiperda; [1]): 100%

Compound: CCN1CCN(c2cnc(COc3ccc4oc5ccccc5c4c3)c(F)c2)CC1 [Example 46]
- efficacy (Spodoptera frugiperda; [1]): 83%

Compound: CN(CCOc1cnc(COc2ccc(F)c(-c3cccc(OC(F)(F)F)c3)c2)c(F)c1)C(C)(C)C [Example 51]
- efficacy (Phaedon cochleariae; [1]): 83%
- efficacy (Spodoptera frugiperda; [1]): 100%
- efficacy (Tetranychus urticae): 100%

Compound: CON(C)CCOc1ccc(COc2cccc3c(Cl)c(Cl)ccc23)nc1SC [Example 52, 2-{[6-{[(5,6-dichloro-1-naphthyl)oxy]methyl}-2-(methylsulfanyl)pyridin-3-yl]oxy}-N-methoxy-N-methylethanamine]
- pest or weed control at 500 g/ha (Phaedon cochleariae; [1]): 100%
- pest or weed control at 500 g/ha (Spodoptera frugiperda; [1]): 100%

Compound: CN(CCOc1cnc(COc2cccc(-c3cccc(OC(F)(F)F)c3)c2)c(F)c1)C(C)(C)C [Example 66]
- efficacy (Phaedon cochleariae; [1]): 100%
- efficacy (Spodoptera frugiperda; [1]): 100%

Compound: CON(C)CCOc1ccc(COc2ccc(Cl)c(OC(F)(F)F)c2)nc1 [Example 73]
- efficacy (laying of fertile eggs) (Boophilus microplus; [2]): 80%
- efficacy (Tetranychus urticae): 100%

Compound: CN(CCOc1cnc(COc2ccc(F)c(-c3cccc(OC(F)(F)F)c3)c2)c(F)c1)C(C)(C)C.Cl [Example 77]
- efficacy (kill in %) (Lucilia cuprina): 90%
- efficacy (Phaedon cochleariae; [1]): 83%
- efficacy (Spodoptera frugiperda; [1]): 100%

Compound: CC(C)N(CCOc1cnc(COc2ccc(Cl)c(OC(F)(F)F)c2)c(F)c1)C(C)C [Example 79]
- efficacy (Phaedon cochleariae; [1]): 100%

Compound: CON(C)CCOc1cnc(COc2cccc(-c3cccc(Cl)c3)c2)c(F)c1 [Example 80]
- efficacy (ticks dead or moribund) (Rhipicephalus sanguineus): 100%
- efficacy (laying of fertile eggs) (Boophilus microplus; [2]): 100%
- efficacy (kill in %) (Lucilia cuprina): 100%
- efficacy (Phaedon cochleariae; [1]): 100%
- efficacy (Spodoptera frugiperda; [1]): 83%

Compound: CON(C)CCOc1cnc(COc2ccc(F)c(Br)c2)c(F)c1 [Example 83]
- efficacy (laying of fertile eggs) (Boophilus microplus; [2]): 80%
- efficacy (Tetranychus urticae): 100%

Compound: CON(C)CCOc1cnc(COc2cccc(-c3cccc(F)c3)c2)c(F)c1 [Example 85]
- efficacy (Spodoptera frugiperda; [1]): 83%

Compound: COc1cc(OCCN(C)OC)cnc1COc1ccc(Cl)c2ccccc12 [Example 91]
- efficacy (laying of fertile eggs) (Boophilus microplus; [2]): 100%
- efficacy (kill in %) (Lucilia cuprina): 80%
- efficacy (Phaedon cochleariae; [1]): 83%

Compound: COc1cc(OCCN(C)OC)cnc1COc1cccc2c(Cl)c(Cl)ccc12 [Example 93]
- efficacy (laying of fertile eggs) (Boophilus microplus; [2]): 100%
- efficacy (kill in %) (Lucilia cuprina): 100%

Compound: COc1cc(OCCN(C)OC)cnc1COc1cccc(-c2ccccc2)c1 [Example 94]
- efficacy (laying of fertile eggs) (Boophilus microplus; [2]): 80%

Compound: CON(C)CCOc1ncc(COc2ccc(Cl)c3ccccc23)cn1 [Example 98]
- efficacy (Phaedon cochleariae; [1]): 100%
